Converted amounts (≈) assume the structure as drawn.
What follows are molecules tested on Radical scavenging activity (assay: Antioxidant activity assessed as DPPH radical scavenging activity).
Assay type: functional

Q: For O=C(O[C@@H]1Cc2c(O)cc(O)cc2O[C@@H]1c1ccc(O)c(O)c1)c1ccccc1, which IC50 is on record?
A: 17 µg/mL (≈ 43.1 µM)

Q: With O=C(O[C@@H]1Cc2c(O)cc(O)cc2O[C@@H]1c1cc(O)c(O)c(O)c1)c1cc(O)c(O)c(O)c1 [EPIGALOCATECHIN GALLATE] as the molecule, how does the IC50 read?
A: 5.6 µg/mL (≈ 12.2 µM)

Q: For Oc1ccc([C@H]2Oc3cc(O)cc(O)c3C[C@H]2O)cc1 [EPIAFZELECHIN (2R,3R)(-)], which IC50 is on record?
A: 7.5 µg/mL (≈ 27.3 µM)

Q: For COc1ccc(O)c(C(C)(C)C)c1.COc1ccc(O)cc1C(C)(C)C [BUTYLATED HYDROXYANISOLE], which IC50 is on record?
A: 4.5 µg/mL

Q: With O=C(O[C@@H]1Cc2c(O[C@@H]3O[C@H](CO)[C@@H](O)[C@H](O)[C@H]3O)cc(O)cc2O[C@@H]1c1ccc(O)c(O)c1)c1ccccc1 as the molecule, how does the IC50 read?
A: 25 µg/mL (≈ 44.9 µM)

Q: For VITAMIN E, which IC50 is on record?
A: 6.2 µg/mL

Q: With Oc1cc(O)c2c(c1)O[C@H](c1ccc(O)c(O)c1)[C@H](O)C2 [(-)-EPICATECHIN] as the molecule, how does the IC50 read?
A: 8.5 µg/mL (≈ 29.3 µM)

Reference: ChEMBL document CHEMBL1150224, “Antioxidant benzoylated flavan-3-ol glycoside from Celastrus orbiculatus” (J Nat Prod, 2001)
